According to patent US20120071475A1, “UREA DERIVATIVES HAVING PI3K-INHIBITING ACTIVITY” (SHIONOGI & CO., LTD., priority 2009, published 2012):

What was measured:
[1] = target: PI3Kγ (Homo sapiens, UniProt P48736); experiment: PI3Kγ inhibitory activity (PI3-kinase HTRF assay, inhibition ratio); assay type: biochemical; conditions: 0.5 h, compound at 10 μmol/L; read-out: PI3Kg Inhibition Ratio % (10 μM)
Procedure, shortened: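 Compound at 10 μmol/L preincubated 10 min with PI3Kγ and PIP2 substrate, then reacted with ATP for 30 minutes at room temperature; the compound, substrate and ATP figures as printed (40 μmol/L each) are solution concentrations. HTRF 665/620 nm ratio read after 18 hours. Inhibition ratio calculated against no-compound (100%) and no-enzyme (0%) controls.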

[2] = system: AKT phosphorylation; experiment: AKT phosphorylation inhibitory activity in MCP-1 stimulated THP-1 cells (sandwich ELISA); assay type: cell-based, Human; conditions: Homo sapiens, compound at 1 μmol/L, MCP-1 stimulation, read-out: AKT phosphorylation inhibition ratio
Experimental: (1) The AKT phosphorylation inhibitory activity of a compound was evaluated according to the following procedure. (2) Human monocyte-like cell line THP-1 was washed with RPMI-1640 media, incubated in the presence of 5% CO2 at 37° C. for 3 hours, washed with Hank's balanced salt solution (HBSS), adjusted to a cell concentration of 6.7×10^6/mL, and then used in an experiment. (3) 30 μL of the cell suspension and 60 μL of each compound solution containing 0.2% DMSO/HBSS were mixed and then preincubated at 37° C. for 5 minutes. 30 μL of HBSS containing 1.2 μg/mL of MCP-1 was added thereto and then incubated for 60 seconds at 37° C. (4) 30 μL of a cell lysate (the final concentrations: 20 mmol/L Tris-HCl (pH 7.5), 150 mmol/L NaCl, 1 mmol/L EDTA, 1 mmol/L EDTA, 1% Triton X-100, 2.5 mmol/L sodium pyrophosphate, 1 mmol/L β-glycerophosphate, 1 mmol/L Na3VO4, 1 μg/ml leupeptin, 50 nmol/L APMSF) was added thereto to lyse cells. (5) The amount of AKT phosphorylation in the cell solution was measured by sandwich ELISA method using anti-Phospho-Akt (Ser473) antibody and anti-AKT1 antibody. (6) Anti-Phospho-Akt (Ser473) antibodies or anti-AKT1 antibodies were immobilized onto the solid phase of a micro well plate. The prepared cell lysate was added to the micro well plate, incubated, and then washed with ELISA wash solution. (7) An anti-AKT1 antibody or anti-Phospho-Akt (Ser473) antibody, which forms a counterpart to an antibody immobilized on the solid phase, was added thereto, incubated, washed similarly, and then reacted with an HRP-labeled anti-mouse IgG antibody. (8) After incubating for 30 minutes and then washing similarly, 100 μL of TMB (3,3′,5,5″-tetramethylbenzidine) was added thereto, followed by reacting for 30 minutes. (9) 100 μL of stop solution was added to quench the color reaction, and then the absorbance at 450 nm was measured. (10) The amount of AKT phosphorylation in a sample in the absence of a compound was defined as 100% activity, and the amount of AKT phosphorylation in a sample in the absence of MCP-1 was defined as 0% activity to calculate an inhibition ratio of each compound. The measurement was performed for a 1 μmol/L solution of each compound.

[3] = target: T1, CYP3A4 (Homo sapiens, UniProt P08684); experiment: CYP3A4 fluorescence MBI test; assay type: in vitro ADME; conditions: difference in IC50 with 0 or 30 minutes pre-reaction; CYP3A4 expressed in E. coli, substrate 7-BFC
T1 construct: host or cells: E. coli
T1 sequence (P08684 whole entry): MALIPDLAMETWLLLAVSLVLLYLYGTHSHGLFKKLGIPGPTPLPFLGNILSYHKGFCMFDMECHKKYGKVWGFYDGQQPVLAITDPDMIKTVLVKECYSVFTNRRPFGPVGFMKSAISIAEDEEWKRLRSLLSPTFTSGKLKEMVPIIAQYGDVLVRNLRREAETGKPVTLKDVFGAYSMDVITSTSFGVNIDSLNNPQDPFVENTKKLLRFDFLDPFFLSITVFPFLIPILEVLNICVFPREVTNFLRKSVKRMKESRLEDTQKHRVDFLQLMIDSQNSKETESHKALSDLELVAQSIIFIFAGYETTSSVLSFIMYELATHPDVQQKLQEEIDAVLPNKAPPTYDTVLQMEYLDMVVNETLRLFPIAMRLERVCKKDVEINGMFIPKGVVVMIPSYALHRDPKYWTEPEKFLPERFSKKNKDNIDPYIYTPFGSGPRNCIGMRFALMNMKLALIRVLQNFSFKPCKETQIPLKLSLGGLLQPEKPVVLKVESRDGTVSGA
Experimental: The CYP3A4 fluorescence MBI test is a test to examine the enhancement of CYP3A4 inhibition of a compound by a metabolic reaction. The test was performed using as an index, a reaction to produce a metabolite 7-hydroxytrifluoromethylcoumarin (HFC) which emits fluorescence, in which CYP3A4 expressed in E. coli was used as an enzyme and 7-benzyloxytrifluoromethylcoumarin (7-BFC) is debenzylated by CYP3A4 enzyme.
The reaction conditions are as follows: substrate: 5.6 μmol/L 7-BFC; pre-reaction time; 0 or 30 minutes; reaction time: 15 minutes; reaction temperature: 25° C. (room temperature); content of CYP3A4 (an enzyme expressed in E. coli): […] at the time of a pre-reaction and […] (when diluted 10 times) at the time of a reaction; the concentrations of a test drug: 0.625, 1.25, 2.5, 5, 10, and 20 μmol/L (6 points).
In a 96-well plate, an enzyme solution and a test drug solution were added as a pre-reaction solution into K-Pi buffer solution (pH 7.4) in the aforementioned ratio. A portion thereof was transferred to another 96-well plate to be diluted ten times with a substrate and a K-Pi buffer solution. A coenzyme, NADPH, was then added to start a reaction, which is the index (this is without a pre-reaction). After reacting for a predetermined time, 4:1 of acetonitrile: 0.5 mol/L Tris (trishydroxyaminomethane) was added to quench the reaction. To the remaining pre-reaction solution, NADPH was added to start a pre-reaction (this is with a pre-reaction). After pre-reacting for a predetermined time, a portion thereof was transferred to another plate to be diluted ten times with a substrate and K-Pi buffer solution, and thereby the index reaction is started. After reacting for a predetermined time, 4:1 of acetonitrile:0.5 mol/L Tris (trishydroxyaminomethane) was added to quench the reaction. For each plate in which the index reaction was carried out, the fluorescence value of a metabolite 7-HFC was measured with a fluorescent plate reader (Ex=420 nm, Em=535 nm).
The case wherein only DMSO (a solvent which dissolved a drug) was added to a reaction system was defined as a control (100%). When a test drug solution was added, the remaining activity (%) at each concentration was calculated, and then IC50 was calculated with a concentration and an inhibition ratio by an inverse estimation using a logistic model. When the difference in IC50 value is 5 μmol/L or more, the compound is shown as (+). When 3 μmol/L or less, the compound is shown as (−).

[4] = target: T2, hERG channel (IKr) (Homo sapiens, UniProt Q12809); experiment: hERG test (whole-cell patch-clamp, IKr in HEK293 cells); assay type: cell-based; conditions: human, HEK293 cells expressing hERG channel, pH 7.4, inhibition of maximum tail current (IKr), compound 1 μM
T2 construct: expressed in transfected cells; host or cells: HEK293
T2 sequence (Q12809 whole entry): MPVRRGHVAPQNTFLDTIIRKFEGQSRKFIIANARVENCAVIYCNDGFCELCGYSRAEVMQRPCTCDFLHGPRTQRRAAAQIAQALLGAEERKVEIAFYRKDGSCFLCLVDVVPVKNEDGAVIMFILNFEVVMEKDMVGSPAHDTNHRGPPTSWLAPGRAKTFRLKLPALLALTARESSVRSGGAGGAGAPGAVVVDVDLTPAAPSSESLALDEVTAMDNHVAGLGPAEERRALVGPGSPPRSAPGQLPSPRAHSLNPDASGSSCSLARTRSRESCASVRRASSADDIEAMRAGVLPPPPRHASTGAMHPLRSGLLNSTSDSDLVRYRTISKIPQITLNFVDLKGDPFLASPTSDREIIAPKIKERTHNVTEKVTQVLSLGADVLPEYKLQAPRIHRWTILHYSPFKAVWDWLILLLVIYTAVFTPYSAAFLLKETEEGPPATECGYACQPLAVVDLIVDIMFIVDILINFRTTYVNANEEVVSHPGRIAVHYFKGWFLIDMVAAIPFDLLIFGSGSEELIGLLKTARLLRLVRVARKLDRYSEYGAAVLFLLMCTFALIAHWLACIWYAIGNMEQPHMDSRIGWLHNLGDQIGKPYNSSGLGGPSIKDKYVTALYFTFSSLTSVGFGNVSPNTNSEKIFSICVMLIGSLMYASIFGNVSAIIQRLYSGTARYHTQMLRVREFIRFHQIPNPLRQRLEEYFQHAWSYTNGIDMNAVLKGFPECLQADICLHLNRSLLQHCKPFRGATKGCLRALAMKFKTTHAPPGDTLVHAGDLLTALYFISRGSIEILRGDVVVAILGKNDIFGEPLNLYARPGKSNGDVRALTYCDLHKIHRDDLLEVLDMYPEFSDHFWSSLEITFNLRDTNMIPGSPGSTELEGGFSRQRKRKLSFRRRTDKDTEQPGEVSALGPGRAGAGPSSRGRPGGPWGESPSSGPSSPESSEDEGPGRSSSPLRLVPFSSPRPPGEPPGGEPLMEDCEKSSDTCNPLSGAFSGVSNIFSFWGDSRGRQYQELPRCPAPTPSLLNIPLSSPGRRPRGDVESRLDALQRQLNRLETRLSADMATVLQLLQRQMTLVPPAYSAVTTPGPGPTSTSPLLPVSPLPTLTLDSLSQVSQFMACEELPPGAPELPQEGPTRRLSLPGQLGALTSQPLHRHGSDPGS
Excerpt: For the purpose of risk evaluation of QT interval extension of electrocardiogram, the activity on delayed rectification K^+ current (IKr), which plays an important role in a cardiac ventricle repolarization process, was examined using the HEK293 cell that was made to express human ether-a-go-go related gene (hERG) channel.
Using an automatic patch-clamp system (PatchXpress 7000A, Axon Instruments Inc.), by a whole-cell patch-clamp method, after the cell was maintained at a membrane potential of −80 mV, IKr induced upon applying depolarizing stimulation of +50 mV for 2 seconds and further applying repolarizing stimulation of −50 mV for 2 seconds was recorded. After generated electric current became stable, a test substance dissolved at an intended concentration in extracellular fluid (137 mmol/L NaCl, 4 mmol/L KCl, 1.8 mmol/L CaCl2.2H2O, 1 mmol/L MgCl2.6H2O, 10 mmol/L glucose, 10 mmol/L HEPES (4-(2-hydroxyethyl)-1-piperazineethanesulfonic acid), pH=7.4) was applied to the cell for 10 minutes under room temperature condition. From the obtained IKr, the absolute value of the maximum tail current was measured using analysis software (DataXpress ver. 1, Molecular Devices Corporation) and the value of the electric current in a maintained membrane potential as baseline. Moreover, an inhibition ratio for the maximum tail current prior to the application of the test substance was calculated and then compared with a group of media-application (0.1% dimethylsulfoxide solution) to evaluate influence of the test substance on IKr.

[5] = Metabolic stability test (pooled human liver microsome); assay type: in vitro ADME; conditions: percentage of test compound remained after 30 minutes, pooled human liver microsome 0.5 mg protein/mL, 1 mmol/L NADPH, 37° C., compound 0.5 μM
Procedure, shortened: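 Pooled human liver microsomes (0.5 mg protein/mL) incubated with compound and 1 mmol/L NADPH at 37° C. in pH 7.4 Tris buffer for 0 or 30 min. Parent quantified by LC/MS/MS after methanol/acetonitrile quench; value is % remaining at 30 min versus 0 min.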

Sequence of PI3Kγ (P48736 whole entry, species assumed): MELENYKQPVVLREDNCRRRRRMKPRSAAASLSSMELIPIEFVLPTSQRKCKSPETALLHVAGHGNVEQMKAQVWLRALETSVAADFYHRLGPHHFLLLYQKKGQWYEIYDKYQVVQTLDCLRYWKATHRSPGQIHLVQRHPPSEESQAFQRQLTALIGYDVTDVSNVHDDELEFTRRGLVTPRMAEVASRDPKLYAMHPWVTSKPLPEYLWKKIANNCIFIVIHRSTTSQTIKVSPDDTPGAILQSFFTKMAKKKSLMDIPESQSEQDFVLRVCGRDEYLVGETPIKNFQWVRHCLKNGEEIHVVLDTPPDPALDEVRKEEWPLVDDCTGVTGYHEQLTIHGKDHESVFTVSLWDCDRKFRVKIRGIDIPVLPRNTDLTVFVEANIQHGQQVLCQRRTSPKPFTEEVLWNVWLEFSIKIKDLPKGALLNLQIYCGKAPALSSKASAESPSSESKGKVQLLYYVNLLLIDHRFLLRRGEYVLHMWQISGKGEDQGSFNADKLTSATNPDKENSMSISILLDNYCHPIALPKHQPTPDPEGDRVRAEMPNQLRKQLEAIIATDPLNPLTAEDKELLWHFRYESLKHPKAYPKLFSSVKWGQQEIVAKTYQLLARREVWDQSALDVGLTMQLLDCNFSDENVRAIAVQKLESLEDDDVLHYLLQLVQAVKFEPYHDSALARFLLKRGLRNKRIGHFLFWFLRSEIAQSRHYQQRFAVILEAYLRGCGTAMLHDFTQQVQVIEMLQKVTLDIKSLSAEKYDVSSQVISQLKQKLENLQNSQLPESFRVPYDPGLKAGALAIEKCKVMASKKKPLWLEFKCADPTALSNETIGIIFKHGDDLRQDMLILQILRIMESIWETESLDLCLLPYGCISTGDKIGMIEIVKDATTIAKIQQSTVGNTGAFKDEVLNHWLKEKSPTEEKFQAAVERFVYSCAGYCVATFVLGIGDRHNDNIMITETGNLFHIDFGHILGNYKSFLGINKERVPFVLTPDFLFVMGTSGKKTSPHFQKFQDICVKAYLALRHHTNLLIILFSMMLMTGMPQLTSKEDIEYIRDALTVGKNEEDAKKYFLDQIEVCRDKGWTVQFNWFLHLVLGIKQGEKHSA

SMILES | inhibition at 10 µM [1] [%] | inhibition at 1 µM [2] [%] | MBI [3] | inhibition at 10 min, 1 µM [4] [%] | hLMS_ox(at 0.5 μM) % [5] [%]
COc1cc(N2CCc3nc(NC(=O)Nc4ccccc4C(=O)NC(C)(C)C)sc3C2)nc(OC)n1 [Compound I-7] | 93 | 77.6 | – | – | –
COc1cc(N2CCc3nc(NC(=O)Nc4cnccc4C(=O)NC(C)C)sc3C2)nc(OC)n1 [Compound I-27] | ≥ 95 | 94.1 | (−) (When 3 μmol/L or less, the compound is shown as (−)) | 2 | –
COc1cc(N2CCc3nc(NC(=O)Nc4cnccc4OCCC(C)C)sc3C2)nc(OC)n1 [Compound I-97] | ≥ 95 | 80.4 | (−) (When 3 μmol/L or less, the compound is shown as (−)) | – | –
COc1cc(N2CCc3nc(NC(=O)Nc4ccccc4C(=O)NC4CCCC4O)sc3C2)nc(OC)n1 (centres unmarked) [Compound I-134] | ≥ 95 | 93 | – | 1.7 | 88.4
COc1cc(N2CCc3nc(NC(=O)Nc4ccccc4C(=O)NC4CCOC4)sc3C2)nc(OC)n1 (centres unmarked) [Compound I-135] | ≥ 95 | 89 | – | 1.8 | 85.8
COc1cc(N2CCc3nc(NC(=O)Nc4ccccc4C(=O)NC(C)C(F)(F)F)sc3C2)nc(OC)n1 (centres unmarked) [Compound I-136] | ≥ 95 | 84 | – | – | –
COc1cc(N2CCc3nc(NC(=O)Nc4cn(C)nc4C(=O)NCC#N)sc3C2)nc(OC)n1 [Compound I-152] | ≥ 95 | ≥ 95 | – | 4.7 | 96.8
[2H]C([2H])([2H])C([2H])(NC(=O)c1ccccc1NC(=O)Nc1nc2c(s1)CN(c1cc(OC)nc(OC)n1)CC2)C([2H])([2H])[2H] [Compound I-153] | ≥ 95 | ≥ 95 | (−) (When 3 μmol/L or less, the compound is shown as (−)) | – | 83
[2H]C([2H])([2H])[C@@H](CO)NC(=O)c1ccccc1NC(=O)Nc1nc2c(s1)CN(c1cc(OC)nc(OC)n1)CC2 [Compound I-154] | ≥ 95 | ≥ 95 | – | – | 98.7
COc1cc(N2CCc3nc(NC(=O)Nc4cn(C)nc4C(=O)N[C@@H](C)CO)sc3C2)nc(OC)n1 [Compound I-155] | 90 | ≥ 95 | – | 2.9 | 95.9
COc1cc(N2CCc3nc(NC(=O)Nc4cn(C)nc4C(=O)NC4CCOC4)sc3C2)nc(OC)n1 (centres unmarked) [Compound I-156] | 80 | ≥ 95 | – | 2.7 | –
COc1cc(N2CCc3nc(NC(=O)Nc4ccccc4C(=O)NCC(C)O)sc3C2)nc(OC)n1 (centres unmarked) [Compound I-157] | 87 | ≥ 95 | – | 0.4 | 96.2
COc1cc(N2CCc3nc(NC(=O)Nc4ccccc4C(=O)NC(C)C#N)sc3C2)nc(OC)n1 (centres unmarked) [Compound I-159] | 77 | ≥ 95 | – | 3.8 | 85.6
COc1cc(N2CCc3nc(NC(=O)Nc4ccccc4C(=O)NC4CCCOC4)sc3C2)nc(OC)n1 (centres unmarked) [Compound I-160] | ≥ 95 | ≥ 95 | – | – | –
COc1cc(N2CCc3nc(NC(=O)Nc4ccccc4C(=O)NC4CCCCC4O)sc3C2)nc(OC)n1 (centres unmarked) [Compound I-161] | ≥ 95 | 93 | – | 6.1 | –
CC(C)NC(=O)c1ccccc1NC(=O)Nc1nc2c(s1)CN(c1cncc(S(C)(=O)=O)c1)CC2 [Compound I-166] | ≥ 95 | 76 | – | 1.8 | –
COC(=O)[C@H](CO)NC(=O)c1nn(C)cc1NC(=O)Nc1nc2c(s1)CN(c1cc(OC)nc(OC)n1)CC2 [Compound I-167] | ≥ 95 | ≥ 95 | – | – | –
Cc1cc(N2CCc3nc(NC(=O)Nc4ccccc4C(=O)N[C@H](C)CO)sc3C2)nc(Cl)n1 [Compound I-169] | ≥ 95 | 75 | – | 2.7 | 94.4
COc1cc(N2CCc3nc(NC(=O)Nc4ccccc4C(=O)NN4CCOCC4)sc3C2)nc(OC)n1 [Compound I-193] | 92 | 81 | – | – | 91.2
CC(C)NC(=O)c1nn(C)cc1NC(=O)Nc1nc2c(s1)CN(c1cncc(C#N)c1)CC2 [Compound I-205] | ≥ 95 | 90 | – | 0.2 | –
CS(=O)(=O)c1cncc(N2CCc3nc(NC(=O)Nc4ccccc4C(=O)NCC#N)sc3C2)c1 [Compound I-210] | 91 | 93 | (−) (When 3 μmol/L or less, the compound is shown as (−)) | – | –
